How the values were obtained:
Test in all cases: MIC, broth microdilution
S. aureus GC 1131 = conditions: Staphylococcus aureus
E. coli GC 2272 = conditions: Escherichia coli
E. faecalis GC 2267 = conditions: Enterococcus faecalis
S. pneumoniae* GC 4465 = conditions: Streptococcus pneumoniae
S. epidermidis GC 4935 = conditions: Staphylococcus epidermidis
E. coli GC 2271 = conditions: Escherichia coli
E. coli GC 4559 = conditions: Escherichia coli
P. aeruginosa GC 2214 = conditions: Pseudomonas aeruginosa
E. coli GC 3226 = conditions: Escherichia coli
S. aureus GC 6335 = conditions: Staphylococcus aureus
E. faecalis GC 2265 = conditions: Enterococcus faecalis
E. coli GC 2234 = conditions: Escherichia coli
S. agalactiae GC 4564 = conditions: Streptococcus agalactiae
S. pyogenes GC 4563 = conditions: Streptococcus pyogenes
E. faecalis GC 4555 = conditions: Enterococcus faecalis
E. coli GC 2232 = conditions: Escherichia coli
S. pneumoniae+ GC 4465 = conditions: Streptococcus pneumoniae
E. coli GC 2236 = conditions: Escherichia coli
E. coli GC 2203 = conditions: Escherichia coli
[1] = GC1131, pre-incubation in human serum
[2] = GC1131, pre-incubation in mouse serum
[3] = GC1131, pre-incubation in water
[4] = GC2272, pre-incubation in human serum
[5] = GC2272, pre-incubation in mouse serum
[6] = GC2272, pre-incubation in water
[7] = GC2267, pre-incubation in human serum
[8] = GC2267, pre-incubation in mouse serum
[9] = GC2267, pre-incubation in water
[10] = GC4935, pre-incubation in human serum
[11] = GC4935, pre-incubation in mouse serum
[12] = GC4935, pre-incubation in water
[13] = GC2271, pre-incubation in human serum
[14] = GC2271, pre-incubation in mouse serum
[15] = GC2271, pre-incubation in water
[16] = GC4559, pre-incubation in human serum
[17] = GC4559, pre-incubation in mouse serum
[18] = GC4559, pre-incubation in water
[19] = GC2214, pre-incubation in human serum
[20] = GC2214, pre-incubation in mouse serum
[21] = GC2214, pre-incubation in water
[22] = GC3226, pre-incubation in human serum
[23] = GC3226, pre-incubation in mouse serum
[24] = GC3226, pre-incubation in water
[25] = GC6335, pre-incubation in human serum
[26] = GC6335, pre-incubation in mouse serum
[27] = GC6335, pre-incubation in water
[28] = GC2265, pre-incubation in human serum
[29] = GC2265, pre-incubation in mouse serum
[30] = GC2265, pre-incubation in water
[31] = GC2234, pre-incubation in human serum
[32] = GC2234, pre-incubation in mouse serum
[33] = GC2234, pre-incubation in water
[34] = GC4564, pre-incubation in human serum
[35] = GC4564, pre-incubation in mouse serum
[36] = GC4564, pre-incubation in water
[37] = GC4563, pre-incubation in human serum
[38] = GC4563, pre-incubation in mouse serum
[39] = GC4563, pre-incubation in water
[40] = GC4555, pre-incubation in human serum
[41] = GC4555, pre-incubation in mouse serum
[42] = GC4555, pre-incubation in water
[43] = GC2232, pre-incubation in human serum
[44] = GC2232, pre-incubation in mouse serum
[45] = GC2232, pre-incubation in water
[46] = GC2236, pre-incubation in human serum
[47] = GC2236, pre-incubation in mouse serum
[48] = GC2236, pre-incubation in water
[49] = GC2203, pre-incubation in human serum
[50] = GC2203, pre-incubation in mouse serum
[51] = GC2203, pre-incubation in water

Measured: MIC

CCCCC(=O)OCOC(=O)N(CC(=O)Nc1cc(N(C)C)c2c(c1O)C(=O)C1=C(O)[C@]3(O)C(=O)C(C(N)=O)=C(O)[C@@H](N(C)C)[C@@H]3C[C@@H]1C2)C(C)(C)C [Example 61, ({[(2-{[(5aR,6aS,7S,10aS)-9-(aminocarbonyl)-4,7-bis(dimethylamino)-1,8,10a,11-tetrahydroxy-10,12-dioxo-5,5a,6,6a,7,10,10a,12-octahydrotetracen-2-yl]amino}-2-oxoethyl)(tert-butyl)amino]carbonyl}oxy)methyl pentanoate]
16 µg/mL: E. coli GC 2271; [15] | E. coli GC 2234; [33] | E. coli GC 2232; [45] | E. coli GC 2236; [48]
1 µg/mL: S. epidermidis GC 4935; [10] | S. epidermidis GC 4935; [12] | E. coli GC 4559; [17] | S. aureus GC 6335; [25] | S. aureus GC 6335; [27] | E. faecalis GC 4555; [41]
> 64 µg/mL: P. aeruginosa GC 2214; [19] | P. aeruginosa GC 2214; [21]
4 µg/mL: E. coli GC 2272; [4] | E. coli GC 2271; [13] | E. coli GC 2232; [43] | E. coli GC 2236; [46]
8 µg/mL: E. coli GC 2272; [6] | E. coli GC 4559; [16] | P. aeruginosa GC 2214; [20] | E. coli GC 3226; [22] | E. coli GC 2234; [31] | E. coli GC 2203; [49]
32 µg/mL: E. coli GC 3226; [24] | E. coli GC 2203; [51]
0.5 µg/mL: S. aureus GC 1131; [1] | S. aureus GC 1131; [2] | S. aureus GC 1131; [3] | E. coli GC 2272; [5] | E. faecalis GC 2267; [8] | S. epidermidis GC 4935; [11] | E. coli GC 2271; [14] | E. coli GC 3226; [23] | S. aureus GC 6335; [26] | E. faecalis GC 2265; [29] | E. coli GC 2234; [32] | S. agalactiae GC 4564; [34] | S. pyogenes GC 4563; [39] | E. coli GC 2232; [44] | S. pneumoniae+ GC 4465; pre-incubation in human serum | S. pneumoniae+ GC 4465; pre-incubation in mouse serum | S. pneumoniae+ GC 4465; pre-incubation in water | E. coli GC 2236; [47] | E. coli GC 2203; [50]
0.12 µg/mL: S. pneumoniae* GC 4465; pre-incubation in mouse serum | S. pneumoniae* GC 4465; pre-incubation in water
0.25 µg/mL: S. pneumoniae* GC 4465; pre-incubation in human serum | S. agalactiae GC 4564; [35] | S. agalactiae GC 4564; [36] | S. pyogenes GC 4563; [37] | S. pyogenes GC 4563; [38]
64 µg/mL: E. coli GC 4559; [18]
2 µg/mL: E. faecalis GC 2267; [7] | E. faecalis GC 2267; [9] | E. faecalis GC 2265; [28] | E. faecalis GC 2265; [30] | E. faecalis GC 4555; [40] | E. faecalis GC 4555; [42]

CN(C)c1cc(NC(=O)CN(C(=O)OCOC(=O)C2CCC2)C(C)(C)C)c(O)c2c1C[C@H]1C[C@H]3[C@H](N(C)C)C(O)=C(C(N)=O)C(=O)[C@@]3(O)C(O)=C1C2=O [Example 62, ({[(2-{[(5aR,6aS,7S,10aS)-9-(aminocarbonyl)-4,7-bis(dimethylamino)-1,8,10a,11-tetrahydroxy-10,12-dioxo-5,5a,6,6a,7,10,10a,12-octahydrotetracen-2-yl]amino}-2-oxoethyl)(tert-butyl)amino]carbonyl}oxy)methyl cyclobutanecarboxylate]
> 64 µg/mL: P. aeruginosa GC 2214; [19] | P. aeruginosa GC 2214; [21]
4 µg/mL: E. coli GC 2272; [4] | E. coli GC 2271; [15] | E. coli GC 3226; [22] | E. coli GC 2236; [48] | E. coli GC 2203; [49]
0.12 µg/mL: S. pneumoniae* GC 4465; pre-incubation in human serum | S. pneumoniae* GC 4465; pre-incubation in mouse serum | S. pneumoniae* GC 4465; pre-incubation in water | S. agalactiae GC 4564; [34] | S. pyogenes GC 4563; [37]
2 µg/mL: E. coli GC 2271; [13] | E. coli GC 2234; [31] | E. coli GC 2232; [43]
0.25 µg/mL: S. agalactiae GC 4564; [35] | S. agalactiae GC 4564; [36] | S. pyogenes GC 4563; [38] | S. pyogenes GC 4563; [39]
1 µg/mL: E. coli GC 2272; [5] | E. faecalis GC 2267; [9] | E. coli GC 2271; [14] | E. coli GC 4559; [17] | E. coli GC 3226; [23] | S. aureus GC 6335; [26] | E. faecalis GC 2265; [30] | E. coli GC 2234; [32] | E. faecalis GC 4555; [41] | E. faecalis GC 4555; [42] | E. coli GC 2232; [44] | S. pneumoniae+ GC 4465; pre-incubation in mouse serum | E. coli GC 2203; [50]
8 µg/mL: E. coli GC 2272; [6] | E. coli GC 4559; [16] | E. coli GC 3226; [24] | E. coli GC 2234; [33] | E. coli GC 2232; [45] | E. coli GC 2236; [46]
16 µg/mL: E. coli GC 4559; [18] | P. aeruginosa GC 2214; [20] | E. coli GC 2203; [51]
0.5 µg/mL: S. aureus GC 1131; [1] | S. aureus GC 1131; [2] | S. aureus GC 1131; [3] | E. faecalis GC 2267; [7] | E. faecalis GC 2267; [8] | S. epidermidis GC 4935; [10] | S. epidermidis GC 4935; [11] | S. epidermidis GC 4935; [12] | S. aureus GC 6335; [25] | S. aureus GC 6335; [27] | E. faecalis GC 2265; [28] | E. faecalis GC 2265; [29] | E. faecalis GC 4555; [40] | S. pneumoniae+ GC 4465; pre-incubation in human serum | S. pneumoniae+ GC 4465; pre-incubation in water | E. coli GC 2236; [47]

Reference: patent US20070049564A1 (Wyeth, priority 2005, published 2007)
